molecular target: T1, Human Kv1.5 channels (Homo sapiens, UniProt P22460); assay: Kv1.5 currents in Xenopus oocytes, two-microelectrode voltage clamp; type: cell-based; conditions: human Kv1.5 expressed in Xenopus laevis oocytes; voltage jumps 500 ms to 0 mV and 40 mV; room temperature; Hill equation
T1 construct: expressed in transfected cells; host or cells: Xenopus laevis oocytes injected with in vitro synthesized Kv1.5-encoding RNA
Description: Human Kv1.5 channels were expressed in Xenopus oocytes. For this purpose, firstly ooytes were isolated from Xenopus laevis and were defolliculated. Kv1.5-encoding RNA which had been synthesized in vitro was then injected into these oocytes. After 1-7 days of Kv1.5 protein expression, the Kv1.5 currents were measured on the oocytes by the two-microelectrode voltage clamp technique. The Kv1.5 channels were for this purpose usually activated with voltage jumps lasting 500 ms to 0 mV and 40 mV. A solution of the following composition flowed through the bath: NaCl 96 mM, KCl 2 mM, CaCl2 1.8 mM, MgCl2 1 mM, HEPES 5 mM (titrated to pH 7.4 with NaOH). These experiments were carried out at room temperature. The following were employed for data acquisition and analysis: geneclamp amplifier (Axon Instruments, Foster City, USA) and MacLab D/A converter and software (ADInstruments, Castle Hill, Australia). The compounds of the invention were tested by adding them in various concentrations to the bath solution. The effects of the compounds were calculated as percentage inhibition of the Kv1.5 control current which was obtained when no compound was added to the solution. The data were then extrapolated using the Hill equation in order to determine the inhibitory concentrations IC50 for the respective compounds.

T1 sequence (P22460 whole entry): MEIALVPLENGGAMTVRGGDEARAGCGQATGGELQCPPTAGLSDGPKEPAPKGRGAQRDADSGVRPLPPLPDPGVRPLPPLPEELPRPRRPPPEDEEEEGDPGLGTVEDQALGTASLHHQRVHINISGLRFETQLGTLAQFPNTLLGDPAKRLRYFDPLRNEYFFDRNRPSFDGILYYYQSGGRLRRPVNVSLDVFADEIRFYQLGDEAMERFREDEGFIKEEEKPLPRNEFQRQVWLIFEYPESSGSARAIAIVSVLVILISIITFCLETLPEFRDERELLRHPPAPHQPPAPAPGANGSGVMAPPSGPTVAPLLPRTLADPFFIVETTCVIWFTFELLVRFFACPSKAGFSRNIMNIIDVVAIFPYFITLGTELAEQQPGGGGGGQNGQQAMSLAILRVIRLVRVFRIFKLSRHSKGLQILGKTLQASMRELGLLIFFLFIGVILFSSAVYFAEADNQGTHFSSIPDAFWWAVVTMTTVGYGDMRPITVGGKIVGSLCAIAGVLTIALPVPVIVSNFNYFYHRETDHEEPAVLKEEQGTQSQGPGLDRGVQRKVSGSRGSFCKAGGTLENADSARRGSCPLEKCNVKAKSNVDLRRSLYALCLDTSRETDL

| Structure (SMILES) | IC50 [nM] |
| --- | --- |
| CC[C@H](NC(=O)c1cc(F)ccc1NS(=O)(=O)c1ccc(Cl)cc1)c1ccccc1 [Example 106] | 3800 |
| Cc1ccc(S(=O)(=O)Nc2ccccc2C(=O)N(Cc2nn(C)cc2Cl)CC2CC2)cc1 [Example 111] | 1700 |
| Cc1ccc(S(=O)(=O)Nc2ccccc2C(=O)N(Cc2cccc(C)n2)CC2CC2)cc1 [Example 113] | 2600 |
| CCCCS(=O)(=O)Nc1ccc(C)cc1C(=O)N[C@H](CC)c1ccccc1 [Example 114] | 1400 |
| CC[C@H](NC(=O)c1cc(F)ccc1NS(=O)(=O)c1ccc(C)cc1)c1ccccc1 [Example 115] | 2400 |
| Cc1ccc(S(=O)(=O)Nc2ccccc2C(=O)N(Cc2ccc(F)cc2)Cc2cccc(C)n2)cc1 [Example 117] | 2400 |
| Cc1ccc(S(=O)(=O)Nc2ccccc2C(=O)N(Cc2cccnc2)Cc2cccc(C)n2)cc1 [Example 118] | 2200 |
| Cc1ccc(S(=O)(=O)Nc2ccccc2C(=O)N(Cc2nccs2)CC2CCCCC2)cc1 [Example 119] | 2700 |
| Cc1ccc(S(=O)(=O)Nc2ccccc2C(=O)N(Cc2cccc(C)n2)CC2CCCO2)cc1 (stereo not drawn) [Example 120] | 1400 |
| CCCCS(=O)(=O)Nc1ccccc1C(=O)N(Cc1cccnc1)Cc1cccc(C)n1 [Example 123] | 2900 |
| CCCCS(=O)(=O)Nc1ccc(C)cc1C(=O)NC(c1ccccn1)C1CC1 (stereo not drawn) [Example 125] | 1800 |
| CCCCS(=O)(=O)Nc1ccc(C)cc1C(=O)NC(c1cccc(OC)n1)C1CC1 (stereo not drawn) [Example 127] | 3300 |
| C#CC(NC(=O)c1cc(C)ccc1NS(=O)(=O)CCCC)c1ccccc1 (stereo not drawn) [Example 128] | 2200 |
| CCCCS(=O)(=O)Nc1ccc(C)cc1C(=O)NC(c1ccc(OC)nc1)C1CC1 (stereo not drawn) [Example 129] | 1300 |
| COc1ccc(NS(=O)(=O)c2ccc(C)cc2)c(C(=O)NC(C)Cc2ccccn2)c1 (stereo not drawn) [Example 133] | 1400 |
| CCCCS(=O)(=O)Nc1ccc(C)cc1C(=O)NC(CC)Cc1cccnc1 (stereo not drawn) [Example 138] | 1800 |
| CCC(Cc1c[nH]c2ccccc12)NC(=O)c1cc(OC)ccc1NS(=O)(=O)c1ccc(C)cc1 (stereo not drawn) [Example 140] | 1400 |
| COc1ccc(NS(=O)(=O)c2ccc(C)cc2)c(C(=O)N[C@H]2CC[C@H](C)CC2)c1 [Example 143] | 3600 |
| CCCCS(=O)(=O)Nc1ccc(C)cc1C(=O)NC(CC)c1cccnc1 (stereo not drawn) [Example 144] | 2800 |
| CCC(NC(=O)c1ccccc1NS(=O)(=O)c1ccc(C)cc1)c1ccco1 (stereo not drawn) [Example 145] | 2600 |
| CCC(NC(=O)c1cc(C)ccc1NS(=O)(=O)C1CC1)c1ccc(C)o1 (stereo not drawn) [Example 146] | 2500 |
| CC[C@H](NC(=O)c1cc(OC)ccc1NS(=O)(=O)CC)c1ccccc1 [Example 147] | 3800 |
| CCCS(=O)(=O)Nc1ccc(OC)cc1C(=O)N[C@@H](CC)c1ccccc1 [Example 148] | 2100 |
| CC[C@H](NC(=O)c1cc(OC)ccc1NS(=O)(=O)C(C)C)c1ccccc1 [Example 149] | 2200 |
| CC[C@H](NC(=O)c1ccccc1NS(=O)(=O)c1ccc(OC)c(OC)c1)c1ccccc1 [Example 151] | 1500 |
| CC[C@H](NC(=O)c1cc(O)ccc1NS(=O)(=O)c1ccc(C)cc1)c1ccccc1 [Example 152, 5-Hydroxy-N-(1-phenylpropyl)-2-(toluene-4-sulfonylamino)benzamide] | 2600 |

The next molecules have a lower IC50 than those just listed; values first:

| IC50 [nM] | Structure (SMILES) |
| --- | --- |
| 1200 | Cc1ccc(S(=O)(=O)Nc2ccc(F)cc2C(=O)N(Cc2ccc(F)cc2)Cc2ccn[nH]2)cc1 [Example 108] |
| 1200 | Cc1ccc(S(=O)(=O)Nc2ccccc2C(=O)N(Cc2ccco2)Cc2nccn2C)cc1 [Example 122] |
| 1200 | CCC(NC(=O)c1cc(OC)ccc1NS(=O)(=O)c1ccc(C)cc1)c1ccc(C)o1 (stereo not drawn) [Example 135] |
| 1100 | Cc1ccc(S(=O)(=O)Nc2ccccc2C(=O)N(Cc2ccc(F)cc2)Cc2nccn2C)cc1 [Example 109] |
| 1100 | Cc1ccc(S(=O)(=O)Nc2ccccc2C(=O)N(Cc2ccccc2)CC2CCCO2)cc1 (stereo not drawn) [Example 116] |
| 1100 | CCC(NC(=O)c1cc(OC)ccc1NS(=O)(=O)c1ccc(C)cc1)c1ccc(C)nc1 (stereo not drawn) [Example 141] |
| 1000 | Cc1ccc(S(=O)(=O)Nc2ccc(F)cc2C(=O)N(Cc2ccccc2)Cc2nccs2)cc1 [Example 110] |
| 1000 | COc1ccc(NS(=O)(=O)c2ccc(C)cc2)c(C(=O)NC(c2ccccn2)C2CC2)c1 (stereo not drawn) [Example 124] |
| 1000 | CCC(NC(=O)c1cc(OC)ccc1NS(=O)(=O)c1ccc(C)cc1)c1ccc(OC)nc1 (stereo not drawn) [Example 139] |
| 900 | Cc1ccc(S(=O)(=O)Nc2ccc(F)cc2C(=O)N(Cc2ccc(F)cc2)Cc2nccn2C)cc1 [Example 107] |
| 900 | COc1ccc(S(=O)(=O)Nc2ccc(OC)cc2C(=O)NC(c2cccnc2)C2CC2)cc1 (stereo not drawn) [Example 134] |
| 900 | CCCCS(=O)(=O)Nc1ccc(C)cc1C(=O)NC(CC)c1ccc(C)o1 (stereo not drawn) [Example 136] |
| 700 | CCC(c1ccccc1)N(C)C(=O)c1ccccc1NS(=O)(=O)c1ccccc1 (stereo not drawn) [Example 130] |
| 700 | COc1ccc(NS(=O)(=O)c2ccc(C)cc2)c(C(=O)NC(c2cccnc2)C2CC2)c1 (stereo not drawn) [Example 131] |
| 700 | CCC(Cc1ccccn1)NC(=O)c1cc(OC)ccc1NS(=O)(=O)c1ccc(C)cc1 (stereo not drawn) [Example 142] |
| 600 | Cc1ccc(S(=O)(=O)Nc2ccccc2C(=O)N(Cc2cccc(C)n2)Cc2ccco2)cc1 [Example 121] |
| 600 | Cc1ccc(S(=O)(=O)Nc2ccc(C)cc2C(=O)NC(c2ccccn2)C2CC2)cc1 (stereo not drawn) [Example 126] |
| 500 | Cc1ccc(S(=O)(=O)Nc2ccccc2C(=O)N(Cc2ccccc2)Cc2ccn[nH]2)cc1 [Example 112] |
| 300 | CC[C@H](NC(=O)c1cc(OC)ccc1NS(=O)(=O)c1ccc(OC)cc1)c1ccccc1 [Example 150] |

Source: US7332608B2, “Anthranilamides and methods of their use” (SANOFI-AVENTIS Deutschland GmbH, priority 2001, dated 2008)
